Results taken from BindingDB's records for doi:10.1021/acs.jmedchem.6b01300 (Invivogen, 2016).

Columns and labels:
[1] = molecular target: T1, Stimulator of interferon genes protein (Homo sapiens, UniProt Q86WV6); assay: Activation of STING in human THP-1-Dual cells assessed as induction of type I IFNs by measuring stimulation of NF-kappaB pathway incubated for 48 hrs by luciferase reporter gene assay
[2] = molecular target: T1, Stimulator of interferon genes protein; assay: Activation of STING in human THP-1-Dual cells assessed as induction of type I IFNs by measuring stimulation of IRF pathway incubated for 48 hrs by luciferase reporter gene assay

T1 sequence (Q86WV6 whole entry): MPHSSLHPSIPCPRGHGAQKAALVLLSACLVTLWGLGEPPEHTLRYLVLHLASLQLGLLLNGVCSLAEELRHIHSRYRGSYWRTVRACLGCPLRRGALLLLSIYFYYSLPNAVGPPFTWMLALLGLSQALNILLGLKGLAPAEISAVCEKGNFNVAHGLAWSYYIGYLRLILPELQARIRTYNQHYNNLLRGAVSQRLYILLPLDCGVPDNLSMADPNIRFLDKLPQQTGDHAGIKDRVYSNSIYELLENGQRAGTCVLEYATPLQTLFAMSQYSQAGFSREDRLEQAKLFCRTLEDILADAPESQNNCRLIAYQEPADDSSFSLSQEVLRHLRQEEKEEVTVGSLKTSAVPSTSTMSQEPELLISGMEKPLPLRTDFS

SMILES | EC50 [1] | EC50 [2]
Nc1ncnc2c1ncn2[C@H]1C[C@@H]2OP(=O)(O)OC[C@H]3O[C@@H](n4cnc5c(O)ncnc54)C[C@@H]3OP(=O)(O)OC[C@H]2O1 | 62300 nM | –
Nc1ncnc2c1ncn2[C@@H]1O[C@@H]2COP(=O)(S)O[C@H]3[C@@H](F)[C@H](n4cnc5c(O)ncnc54)O[C@@H]3COP(=O)(S)O[C@H]2[C@H]1F (stereo partly specified) | 1600 nM | 300 nM
Nc1ncnc2c1ncn2[C@H]1C[C@@H]2OP(=O)(O)OC[C@H]3O[C@@H](n4cnc5c(O)ncnc54)[C@H](F)[C@@H]3OP(=O)(O)OC[C@H]2O1 | 32300 nM | 2300 nM
Nc1ncnc2c1ncn2[C@@H]1O[C@@H]2COP(=O)(O)O[C@H]3C[C@H](n4cnc5c(O)ncnc54)O[C@@H]3COP(=O)(O)O[C@H]2[C@H]1F | 25500 nM | 1400 nM

Continued, values first:

EC50 [1] | EC50 [2] | SMILES
15400 nM | 1100 nM | Nc1ncnc2c1ncn2[C@@H]1O[C@@H]2COP(=O)(O)O[C@H]3[C@@H](F)[C@H](n4cnc5c(O)ncnc54)O[C@@H]3COP(=O)(O)O[C@H]2[C@H]1F
7800 nM | 1600 nM | Nc1ncnc2c1ncn2[C@@H]1O[C@@H]2COP(=O)(S)O[C@H]3[C@@H](O)[C@H](n4cnc5c(O)ncnc54)O[C@@H]3COP(=O)(S)O[C@H]2[C@H]1O (stereo partly specified)
